This note sets out measurements from US9518000B2, “Bicyclo [2.2.1] acid GPR120 modulators” (BRISTOL-MYERS SQUIBB COMPANY, priority 2013, dated 2016).

Molecules are shown by their SMILES.

The test deals with human GPR120 (Homo sapiens (Human), UniProt Q5NUL3). The test is described as follows: GPR120 pERK AlphaScreen SureFire Assay (human GPR120 pERK assay). Type of test: cell-based. The following applies: CHOA12 or CHO-K1 cells stably transfected with the short form of human GPR120 receptor; phosphorylated ERK; read-out: EC50 values measured in the human GPR120 pERK assay. The source says: GPR120 activity was monitored by measuring phosphorylation of ERK (pERK), since G protein receptors are known to activate the ERK signaling cascade either directly and/or through recruitment of arrestin that serves as a scaffold for downstream signaling events.
Chain of human GPR120 (Q5NUL3 whole entry): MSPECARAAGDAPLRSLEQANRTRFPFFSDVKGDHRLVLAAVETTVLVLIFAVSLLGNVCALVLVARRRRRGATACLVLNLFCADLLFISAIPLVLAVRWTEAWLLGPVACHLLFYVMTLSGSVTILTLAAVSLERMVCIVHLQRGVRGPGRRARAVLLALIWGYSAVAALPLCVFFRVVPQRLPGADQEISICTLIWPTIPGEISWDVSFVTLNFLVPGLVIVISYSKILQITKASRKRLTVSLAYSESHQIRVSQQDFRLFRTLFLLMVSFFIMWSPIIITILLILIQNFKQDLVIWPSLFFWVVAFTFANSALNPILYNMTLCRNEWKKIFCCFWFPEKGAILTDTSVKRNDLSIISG
GPR120 pERK AlphaScreen SureFire Assay
The human and mouse GPR120-mediated intracellular phosphorylated ERK assays were established using CHOA12 cells stably transfected with the short form of human or mouse GPR120 receptor. Cells were cultured in growth medium consisting of F-12 media (Invitrogen Cat. #11765) with 5% Charcoal/Dextran FBS (Invitrogen Cat. #12676-029), 500 μg/mL GENETICIN® (Life Technologies Cat. #10131-027) and 250 μg/mL Zeocin (Invitrogen Cat. #R250-01). Cells were cryo preserved at a concentration of 2×10^7 cells/mL, in 90% Charcoal/Dextran FBS and 10% DMSO, and frozen in liquid nitrogen at a low passage number.
For the pERK assay, 2×10^7 cells/mL cryopreserved human and mouse cells were thawed rapidly in a 37° C. water bath and added to a T-225 flask containing 50 mL growth medium. The flasks were placed in a tissue culture incubator overnight (37° C., 5% CO2). The next day, cells were harvested with trypsin (Gibco Cat. #25300-054), resuspended in serum-containing growth medium and counted using a Cellometer and volume adjusted to a concentration of 0.6×10^6 cells/mL. Cells were plated into 384-well clear bottom tissue culture plates (BD Cat. #353962) at 50 μL/well, for a density of 30,000 cells/well using a MULTIDROP® and incubated for 16-18 hours (overnight) at 37° C. with 5% CO2. The next day, cells were serum starved in 30 μL of F-12 media without any serum or antibiotics for 2 hours at 37° C.
Test compounds were 3-fold, 11-point serially diluted in DMSO in a REMP assay plate (Matrix Cat. #4307) by Tecan and 5 μL was transferred into an ECHO source plate (LabCyte Cat. #LC-0200). Cells were then stimulated with 50 nL of compound dilutions using ECHO liquid handler for 7 minutes at 37° C. Compounds ranged from final assay concentrations of 33.33 μM to 0.56 nM.
The media was then dumped and cells lysed with 20 μL of 1× Lysis buffer from the AlphaScreen SureFire Phospho-ERK 1/2 Kit (Perkin Elmer Cat. #6760617M). The lysis buffer was diluted 5-fold with water before use. The plate was agitated on a shaker for 10 minutes after which 2 μL was transferred into a 384-well white proxiplate (Perkin Elmer Cat. #6008289). The SureFire assay reagent mix was prepared by mixing 60 parts Reaction Buffer, 10 parts Activation Buffer, 1 part Donor Beads, 1 part Acceptor Beads (Perkin Elmer Cat. #TGRES10K). 3.5 μL/well of this reagent mix was manually added to the proxiplate with a multichannel pipettor. Plates were spun down at 1000 rpm for 2 minutes, followed by light-protected incubation at room temperature for 2 hours. The plates were read on the Alpha-technology compatible Envision multilabel plate reader using AlphaScreen protocol according to manufacturer's specifications. The agonist effect of compounds was expressed as 100×(average sample-average blank)/(average total−average blank) where sample is the luminescence activity in the presence of test compound, blank is equal to the luminescence activity in the presence of DMSO control and the total is signal induced by 50 μM linolenic acid as reference compound. Activation data for the test compound over a range of concentrations was plotted as percentage activation of the test compound (100%=maximum response). After correcting for background, EC50 values were determined. The EC50 is defined as the concentration of test compound which produces 50% of the maximal response and was quantified using the 4 parameter logistic equation to fit the data.
The human and mouse GPR120-mediated intracellular phosphorylated ERK assays were also established using CHO-K1 cells stably transfected with the short form of human or mouse GPR120 receptor. […]
(Alpha assays give light when donor and acceptor beads are brought close together.)
`O=C(O)CCCC12CCC(OCc3cccc(-c4ccccc4)c3)(CC1)C2` [Example 57, 4-(4-(biphenyl-3-ylmethoxy)bicyclo[2.2.1]heptan-1-yl) butanoic acid]: the EC50 (commonly the concentration at which the effect is half-maximal) turned out to be 770 nM.
The same measure for `O=C(O)CCCC12CCC(OCc3ccc(Oc4ccccc4)cc3)(CC1)C2` [Example 58, 4-(4-(4-phenoxy-benzyloxy)bicyclo[2.2.1]heptan-1-yl) butanoic acid]: 1720 nM; for `O=C(O)CCCC12CCC(OCc3c(Cl)ccc(Cl)c3Cl)(CC1)C2` [Example 59, 4-(4-(2,3,6-trichlorobenzyl-oxy)bicyclo [2.2.1]heptan-1-yl)butanoic acid]: 610 nM; for `COc1ccc(Br)cc1COC12CCC(CCCC(=O)O)(CC1)C2` [Example 60, 4-(4-(5-bromo-2-methoxybenzyl-oxy)bicyclo [2.2.1]heptan-1-yl)butanoic acid]: 4150 nM.
The same measure for `O=C(O)CCCC12CCC(OCc3cccc(-c4cccs4)c3)(CC1)C2` [Example 61, 4-(4-(3-(thiophen-2-yl)benzyloxy)bicyclo[2.2.1]heptan-1-yl) butanoic acid]: 750 nM; for `Cc1ccc(Br)cc1COC12CCC(CCCC(=O)O)(CC1)C2` [Example 62, 4-(4-(5-bromo-2-methylbenzyl-oxy)bicyclo [2.2.1]heptan-1-yl)butanoic acid]: 810 nM; for `O=C(O)CCCC12CCC(OCc3cc(C(F)(F)F)ccc3Cl)(CC1)C2` [Example 63, 4-(4-(2-chloro-5-(trifluoromethyl)benzyloxy)bicyclo[2.2.1]heptan-1-yl) butanoic acid]: 2470 nM.
On to `O=C(O)CCCC12CCC(OCc3ccccc3C(F)(F)F)(CC1)C2` [Example 64, 4-(4-(2-(trifluoro-methyl)benzyloxy)bicyclo[2.2.1]heptan-1-yl) butanoic acid], for which the EC50 is 1510 nM.
Regarding `O=C(O)CCCC12CCC(OCc3cccc(C(F)(F)F)c3)(CC1)C2` [Example 65, 4-(4-(3-(trifluoro-methyl)benzyloxy)bicyclo[2.2.1]heptan-1-yl) butanoic acid], the EC50 turned out to be 1270 nM.
Consider `COC(=O)CCCC12CCC(OCc3cc(F)ccc3-c3ccc(C)cc3)(CC1)C2` [Example 66, methyl 4-(4-((4-fluoro-4′-methyl-[1,1′-biphenyl]-2-yl)methoxy)bicyclo [2.2.1]heptan-1-yl)butanoic], for which the EC50 is 370 nM.
Consider `CSc1nccc(COC23CCC(CCCC(=O)O)(CC2)C3)n1` [Example 67, 4-(4-((2-(methylthio)pyrimidin-4-yl)methoxy)bicyclo[2.2.1]heptan-1-yl) butanoic acid], for which the EC50 stood at 4960 nM.
The same measure for `CC(CCC12CCC(OCc3ccccc3Oc3ccccc3)(CC1)C2)C(=O)O` (centres unmarked) [Example 68, 2-Methyl-4-(4-(2-phenoxybenzyloxy)bicyclo[2.2.1]heptan-1-yl)butanoic acid]: 1000 nM.
Next, `CC1(C)Cc2cc(Cl)cc(COC34CCC(CCCO)(CC3)C4)c2O1` [Example 70, 3-(4-((5-Chloro-2,2-dimethyl-2,3-dihydrobenzofuran-7-yl)methoxy)bicyclo[2.2.1]heptan-1-yl)propan-1-ol]: 7250 nM.
Next, `CC1(C)Cc2cc(Cl)cc(COC34CCC(CCC(=O)O)(CC3)C4)c2O1` [Example 71, 3-(4-((5-Chloro-2,2-dimethyl-2,3-dihydrobenzofuran-7-yl)methoxy)bicyclo[2.2.1]heptan-1-yl)propanoic acid]: 6640 nM; `O=C(O)COCC12CCC(OCc3ccccc3Oc3ccccc3)(CC1)C2` [Example 72, 2-((4-(2-Phenoxybenzyloxy)bicyclo[2.2.1]heptan-1-yl)methoxy)acetic acid]: 1120 nM.
With `O=C(O)COCC12CCC(OCc3cccc(Oc4ccccc4)c3)(CC1)C2` [Example 74, 2-((4-(3-phenoxybenzyloxy)bicyclo[2.2.1]heptan-1-yl)methoxy)acetic acid], the EC50 worked out at 1430 nM.
The same measure for `O=C(O)COCC12CCC(OCc3cc(F)cc(Oc4ccc(F)cc4)c3)(CC1)C2` [Example 75, 2-((4-(3-fluoro-5-(4-fluorophenoxy)benzyloxy)bicyclo[2.2.1]heptan-1-yl)methoxy)acetic acid]: 1850 nM.
In the case of `CC(OC12CCC(COCC(=O)O)(CC1)C2)c1cc(F)cc(Oc2ccc(F)cc2)c1` (centres unmarked) [Example 76, 2-((4-(1-(3-fluoro-5-(4-fluorophenoxy)phenyl)ethoxy)bicyclo[2.2.1]heptan-1-yl)methoxy)acetic acid], the EC50 came to 3040 nM.
The same measure for `CC1(C)Cc2cc(Cl)cc(COC34CCC(COCC(=O)O)(CC3)C4)c2O1` [Example 77, 2-((4-((5-chloro-2,2-dimethyl-2,3-dihydrobenzofuran-7-yl)methoxy)bicyclo[2.2.1]heptan-1-yl)methoxy)acetic acid]: 4530 nM.
`O=C(O)COCC12CCC(OCc3cc(Cl)cc(OC(F)(F)F)c3)(CC1)C2` [Example 78, 2-((4-((3-chloro-5-(trifluoromethoxy)benzyl)oxy)bicyclo[2.2.1]heptan-1-yl)methoxy)acetic acid]: the EC50 was 940 nM.
Consider `O=C(O)CCOC12CCC(OCc3cc(F)cc(Oc4ccccc4)c3)(CC1)C2` [Example 79, 3-(4-(3-Fluoro-5-phenoxybenzyloxy)bicyclo[2.2.1]heptan-1-yloxy)propanoic acid], for which the EC50 was determined as 270 nM.
The same measure for `CS(=O)(=O)NC(=O)CCCC12CCC(OCc3cc(F)ccc3Oc3ccccc3)(CC1)C2` [Example 83, 4-(4-(5-Fluoro-2-phenoxybenzyloxy)bicyclo[2.2.1]heptan-1-yl)-N-(methylsulfonyl) butanamide]: 400 nM.
Next, `CNC(=O)CCCC12CCC(OCc3cccc(Oc4ccccc4)c3)(CC1)C2` [Example 84, N-Methyl-4-(4-((3-phenoxybenzyl)oxy)bicyclo[2.2.1]heptan-1-yl)butanamide]: 3030 nM; `O=C(CCCC12CCC(OCc3cccc(Oc4ccccc4)c3)(CC1)C2)N1CC(O)C1` [Example 85, 1-(3-Hydroxyazetidin-1-yl)-4-(4-((3-phenoxybenzyl)oxy)bicyclo[2.2.1]heptan-1-yl)butan-1-one]: 2400 nM.
For `O=C(O)CCC12CCC(OCCc3ccccc3Oc3ccccc3)(CC1)C2` [Example 86, 3-(4-(2-Phenoxyphenethoxy)bicyclo[2.2.1]heptan-1-yl)propanoic acid], the EC50 is 6990 nM.
Consider `O=C(O)CCC12CCC(OCCc3cccc4ccccc34)(CC1)C2` [Example 87, 3-(4-(2-(naphthalen-1-yl)ethoxy)bicyclo [2.2.1]heptan-1-yl) propanoic acid], for which the 50% effective concentration (EC50) was 1310 nM.
For `O=C(O)CCC12CCC(OCCc3cccc(Oc4ccccc4)c3)(CC1)C2` [Example 88, 3-(4-(3-phenoxyphenethoxy)bicyclo[2.2.1]heptan-1-yl)propanoic acid], the EC50 came to 2640 nM.
On to `O=C(O)CCC12CCC(OCCc3cc(OC(F)(F)F)ccc3F)(CC1)C2` [Example 89, 3-((1S,4R)-4-(2-fluoro-5-(trifluoromethoxy)phenethoxy)bicyclo [2.2.1]heptan-1-yl) propanoic acid], for which the EC50 came out at 2640 nM.
`O=C(O)CCC12CCC(OCc3cc(F)cc(Oc4ccccc4)c3)(CC1)C2` [Example 90, 3-(4-((3-fluoro-5-phenoxybenzyl)oxy)bicyclo [2.2.1]heptan-1-yl) propanoic acid]: the EC50 was 1220 nM.
